Results on 2 compounds are retold here after publication PMC8901439 (Molecular Cell, 2022).

What all share (type): biochemical
In test [1] the target is T1, Dnmt1 (Mus musculus, UniProt P13864, N1580A). The experiment in a line: single-turnover azidoalkylation kinetics on hemimethylated 25-mer DNA.
Test [2] deals with T2, Dnmt1 (Mus musculus, UniProt P13864, R1576A/N1580A). The test is described as above.
Test [3] deals with Dnmt1 (Mus musculus, UniProt P13864). The experiment in a line: single-turnover methylation kinetics on hemimethylated 25-mer DNA.
Sequence of Dnmt1 (Mus musculus, UniProt P13864) (P13864 291-1620): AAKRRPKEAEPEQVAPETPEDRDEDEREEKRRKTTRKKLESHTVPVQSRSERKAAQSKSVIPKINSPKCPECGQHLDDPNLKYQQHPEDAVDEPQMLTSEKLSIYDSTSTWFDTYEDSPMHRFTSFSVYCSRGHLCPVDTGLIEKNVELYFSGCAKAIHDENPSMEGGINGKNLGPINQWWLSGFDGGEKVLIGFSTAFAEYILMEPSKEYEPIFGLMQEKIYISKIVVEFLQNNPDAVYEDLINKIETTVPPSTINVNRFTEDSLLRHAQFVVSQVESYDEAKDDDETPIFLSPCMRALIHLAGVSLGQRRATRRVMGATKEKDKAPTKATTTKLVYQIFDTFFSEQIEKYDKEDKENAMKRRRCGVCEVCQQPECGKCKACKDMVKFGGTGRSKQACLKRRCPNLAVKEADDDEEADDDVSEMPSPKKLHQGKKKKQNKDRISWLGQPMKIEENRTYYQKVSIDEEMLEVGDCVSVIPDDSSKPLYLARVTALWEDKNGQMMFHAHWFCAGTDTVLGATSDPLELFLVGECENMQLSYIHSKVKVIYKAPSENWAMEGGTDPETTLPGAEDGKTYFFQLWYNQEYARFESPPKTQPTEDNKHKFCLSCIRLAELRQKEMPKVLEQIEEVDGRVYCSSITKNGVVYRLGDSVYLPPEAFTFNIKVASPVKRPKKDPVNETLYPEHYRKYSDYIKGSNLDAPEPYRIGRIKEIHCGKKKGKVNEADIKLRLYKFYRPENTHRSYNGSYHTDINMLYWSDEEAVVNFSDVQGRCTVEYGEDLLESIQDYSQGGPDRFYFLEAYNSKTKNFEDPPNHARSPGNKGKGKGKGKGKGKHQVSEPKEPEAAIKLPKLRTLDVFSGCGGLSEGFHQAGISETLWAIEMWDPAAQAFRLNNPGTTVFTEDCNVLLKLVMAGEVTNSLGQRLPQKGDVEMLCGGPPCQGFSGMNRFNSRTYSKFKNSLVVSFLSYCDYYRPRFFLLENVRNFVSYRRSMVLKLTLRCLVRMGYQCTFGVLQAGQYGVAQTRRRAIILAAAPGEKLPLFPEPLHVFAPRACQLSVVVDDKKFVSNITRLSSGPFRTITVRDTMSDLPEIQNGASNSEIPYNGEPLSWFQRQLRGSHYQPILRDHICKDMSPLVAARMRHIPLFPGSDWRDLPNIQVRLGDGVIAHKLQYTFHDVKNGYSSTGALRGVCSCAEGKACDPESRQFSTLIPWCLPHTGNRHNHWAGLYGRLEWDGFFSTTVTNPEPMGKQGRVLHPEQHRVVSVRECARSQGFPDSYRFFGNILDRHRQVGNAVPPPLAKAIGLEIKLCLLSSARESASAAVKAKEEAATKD
Test [4] deals with T1, Dnmt1. Described as above.
Test [5] concerns the target T2, Dnmt1. The test is described as above.

T2 sequence (P13864 291-1620 R1576A/N1580A): as the sequence (P13864 291-1620) above, with R1286A, N1290A counted along it
T1 sequence (P13864 291-1620 N1580A): as the sequence (P13864 291-1620) above, with N1290A counted along it

In the case of `[N-]=[N+]=NCCCC#CC[S+](CC[C@H](N)C(=O)O)C[C@H]1O[C@@H](n2cnc3c(N)ncnc32)[C@H](O)[C@@H]1O` (mixture of isomers) [Ado-6-azide], the “kchem^Ado-6-azide azidoalkylation / min^-1” value amounted to 1.4 ± 0.13 min⁻¹ at Dnmt1 [1] and 0.27 ± 0.025 min⁻¹ at Dnmt1 [2].
As to `C[S+](CC[C@H](N)C(=O)[O-])C[C@H]1O[C@@H](n2cnc3c(N)ncnc32)[C@H](O)[C@@H]1O` (some centres unmarked) [AdoMet], the “kchem^AdoMet methylation / min^-1” value on Dnmt1 [3] came out at 3.0 ± 0.13 min⁻¹; at Dnmt1 [4] it was 0.104 ± 0.002 min⁻¹; on Dnmt1 [5] it was 0.035 ± 0.002 min⁻¹.
